Laboratory results from patent publication US20190031618A1, “BENZIMIDAZOLE DERIVATIVES USEFUL AS CB-1 INVERSE AGONISTS” (Janssen Pharmaceutica NV, priority 2015, published 2019).

Experiments:
Assay type in all cases: in vivo
DIO mice [1] = assay: Chronic DIO Mouse: food intake, body weight, plasma insulin; conditions: chronic DIO mouse, (Std Err)
Method: Male 14-20-week old diet-induced obese mice are ordered from Taconic. Mice were started on a 60% fat diet (D12492, Research Diets, New Brunswick, N.J.) at 6 weeks of age. Mice are single-housed.
(§1) DIO mice received vehicle, test compound (@ 1, 3, 10, and 30 mg/kg) daily for 26 days. At the end of the experiment, the mice were euthanized and blood and tissues were collected.
Body weight and food weight (food intake) were monitored daily for days 1-5 and twice weekly thereafter.
(§2) Blood glucose was measured from the tail vein with a Lifescan glucometer. Plasma insulin was measured with an ELISA or HTRF kit (Cisbio). Plasma parameters were measured with an Olympus clinical chemistry analyzer.

DIO mice [2] = assay: Chronic DIO Mouse: insulin tolerance test; conditions: for Insulin Tolerance Test Blood Glucose AUC (Std Err): day 21
Method: as §1
(§3) An insulin tolerance test (0.7 U/kg Humulin, ip) was performed on day 21 after a 4 hour food removal. Blood glucose was measured at 0, 15, 30, 60 and 120 minutes after insulin. After an overnight fast, an oral glucose tolerance test (2 g/kg glucose) was performed on day 23. Blood glucose was measured at 0, 30, 60 and 120 minutes after glucose challenge.
as §2

DIO mice [3] = assay: Chronic DIO Mouse: oral glucose tolerance test; conditions: for Oral Glucose Tolerance Test Blood Glucose AUC: day 23
Method: as §1, §3, §2

`O=C(O)c1cccc(CN2CCC(n3c(C4CC4)nc4ccc(C(c5ccc(Cl)cc5)c5ccc(Cl)cc5)cc43)CC2)c1` [Example 148] was tested, and the “Mean Daily Food Intake” value (DIO mice [1]; 3 mg/kg daily, Day 18) was 2.2 (0.1) Grams, the “Mean Daily Food Intake” value (DIO mice [1]; 3 mg/kg daily, Day 24) was 2.2 (0.1) Grams and the “Mean Daily Food Intake” value (DIO mice [1]; 10 mg/kg daily, Day 2) was 0.5 (0.1) Grams. The “Mean Daily Food Intake” value (DIO mice [1]; 10 mg/kg daily, Day 3) was 0.9 (0.1) Grams, the “Mean Daily Food Intake” value (DIO mice [1]; 10 mg/kg daily, Day 4) was 1.7 (0.2) Grams and the “Mean Daily Food Intake” value (DIO mice [1]; 10 mg/kg daily, Day 5) was 1.8 (0.2) Grams. The “Mean Daily Food Intake” value (DIO mice [1]; 10 mg/kg daily, Day 8) was 1.7 (0.1) Grams, the “Mean Daily Food Intake” value (DIO mice [1]; 10 mg/kg daily, Day 11) was 2.0 (0.1) Grams and the “Mean Daily Food Intake” value (DIO mice [1]; 10 mg/kg daily, Day 15) was 2.3 (0.1) Grams. The “Mean Daily Food Intake” value (DIO mice [1]; 10 mg/kg daily, Day 18) was 2.3 (0.1) Grams, the “Mean Daily Food Intake” value (DIO mice [1]; 10 mg/kg daily, Day 24) was 2.2 (0.2) Grams and the “Mean Daily Food Intake” value (DIO mice [1]; 30 mg/kg daily, Day 2) was 0.1 (0.1) Grams. For the same compound, the “Mean Daily Food Intake” value (DIO mice [1]; 30 mg/kg daily, Day 3) was 0.5 (0.1) Grams, the “Mean Daily Food Intake” value (DIO mice [1]; 30 mg/kg daily, Day 4) was 0.7 (0.1) Grams and the “Mean Daily Food Intake” value (DIO mice [1]; 30 mg/kg daily, Day 5) was 1.0 (0.2) Grams. The “Mean Daily Food Intake” value (DIO mice [1]; 30 mg/kg daily, Day 8) was 1.3 (0.2) Grams, the “Mean Daily Food Intake” value (DIO mice [1]; 30 mg/kg daily, Day 11) was 1.7 (0.2) Grams and the “Mean Daily Food Intake” value (DIO mice [1]; 30 mg/kg daily, Day 15) was 2.3 (0.1) Grams. For the same compound, the “Mean Daily Food Intake” value (DIO mice [1]; 30 mg/kg daily, Day 18) was 1.8 (0.2) Grams, the “Mean Daily Food Intake” value (DIO mice [1]; 30 mg/kg daily, Day 24) was 2.4 (0.1) Grams and the “Insulin Tolerance Test Blood Glucose AUC (Std Err)” value (DIO mice [2]; 1 mg/kg daily) was 19606.5 mg·min/dL. The “Insulin Tolerance Test Mean Blood Glucose (Std Err)” value (DIO mice [2]; 1 mg/kg daily, day 21, 0 min after insulin) was 194.8 mg/dL, the “Insulin Tolerance Test Mean Blood Glucose (Std Err)” value (DIO mice [2]; 1 mg/kg daily, day 21, 15 min after insulin) was 193.3 mg/dL and the “Insulin Tolerance Test Mean Blood Glucose (Std Err)” value (DIO mice [2]; 1 mg/kg daily, day 21, 30 min after insulin) was 155 mg/dL. For the same compound, the “Insulin Tolerance Test Mean Blood Glucose (Std Err)” value (DIO mice [2]; 1 mg/kg daily, day 21, 60 min after insulin) was 161.3 mg/dL, the “Insulin Tolerance Test Mean Blood Glucose (Std Err)” value (DIO mice [2]; 1 mg/kg daily, day 21, 120 min after insulin) was 150 mg/dL and the “Insulin Tolerance Test Blood Glucose AUC (Std Err)” value (DIO mice [2]; 3 mg/kg daily) was 17812.5 (1054.85) mg/dL * min. The “Insulin Tolerance Test Mean Blood Glucose (Std Err)” value (DIO mice [2]; 3 mg/kg daily, day 21, 0 min after insulin) was 185.9 (6.57) mg/dL, the “Insulin Tolerance Test Mean Blood Glucose (Std Err)” value (DIO mice [2]; 3 mg/kg daily, day 21, 15 min after insulin) was 160.9 (7.24) mg/dL and the “Insulin Tolerance Test Mean Blood Glucose (Std Err)” value (DIO mice [2]; 3 mg/kg daily, day 21, 30 min after insulin) was 138.9 (9.10) mg/dL. The “Insulin Tolerance Test Mean Blood Glucose (Std Err)” value (DIO mice [2]; 3 mg/kg daily, day 21, 60 min after insulin) was 150.9 (11.66) mg/dL, the “Insulin Tolerance Test Mean Blood Glucose (Std Err)” value (DIO mice [2]; 3 mg/kg daily, day 21, 120 min after insulin) was 136.3 (9.51) mg/dL and the “Insulin Tolerance Test Blood Glucose AUC (Std Err)” value (DIO mice [2]; 10 mg/kg daily) was 17930.25 (556.44) mg/dL * min. For the same compound, the “Insulin Tolerance Test Mean Blood Glucose (Std Err)” value (DIO mice [2]; 10 mg/kg daily, day 21, 0 min after insulin) was 168.8 (7.13) mg/dL, the “Insulin Tolerance Test Mean Blood Glucose (Std Err)” value (DIO mice [2]; 10 mg/kg daily, day 21, 15 min after insulin) was 172.6 (9.66) mg/dL and the “Insulin Tolerance Test Mean Blood Glucose (Std Err)” value (DIO mice [2]; 10 mg/kg daily, day 21, 30 min after insulin) was 139.1 (7.03) mg/dL. The “Insulin Tolerance Test Mean Blood Glucose (Std Err)” value (DIO mice [2]; 10 mg/kg daily, day 21, 60 min after insulin) was 146.7 (5.80) mg/dL, the “Insulin Tolerance Test Mean Blood Glucose (Std Err)” value (DIO mice [2]; 10 mg/kg daily, day 21, 120 min after insulin) was 144.8 (5.86) mg/dL and the “Insulin Tolerance Test Blood Glucose AUC (Std Err)” value (DIO mice [2]; 30 mg/kg daily) was 14575.5 mg·min/dL. The “Insulin Tolerance Test Mean Blood Glucose (Std Err)” value (DIO mice [2]; 30 mg/kg daily, day 21, 0 min after insulin) was 143 mg/dL, the “Insulin Tolerance Test Mean Blood Glucose (Std Err)” value (DIO mice [2]; 30 mg/kg daily, day 21, 15 min after insulin) was 147.6 mg/dL and the “Insulin Tolerance Test Mean Blood Glucose (Std Err)” value (DIO mice [2]; 30 mg/kg daily, day 21, 30 min after insulin) was 119.8 mg/dL. For the same compound, the “Insulin Tolerance Test Mean Blood Glucose (Std Err)” value (DIO mice [2]; 30 mg/kg daily, day 21, 60 min after insulin) was 121.3 mg/dL, the “Insulin Tolerance Test Mean Blood Glucose (Std Err)” value (DIO mice [2]; 30 mg/kg daily, day 21, 120 min after insulin) was 104.5 mg/dL and the “Oral Glucose Tolerance Test Blood Glucose AUC” value (DIO mice [3]; 1 mg/kg daily) was 19362 mg·min/dL. For the same compound, the “Oral Glucose Tolerance Test Mean Blood Glucose” value (DIO mice [3]; 1 mg/kg daily, day 23, 0 min after glucose) was 139.90 mg/dL, the “Oral Glucose Tolerance Test Mean Blood Glucose” value (DIO mice [3]; 1 mg/kg daily, day 23, 30 min after glucose) was 179.2 mg/dL and the “Oral Glucose Tolerance Test Mean Blood Glucose” value (DIO mice [3]; 1 mg/kg daily, day 23, 60 min after glucose) was 168.5 mg/dL. For the same compound, the “Oral Glucose Tolerance Test Mean Blood Glucose” value (DIO mice [3]; 1 mg/kg daily, day 23, 120 min after glucose) was 143.5 mg/dL, the “Oral Glucose Tolerance Test Blood Glucose AUC” value (DIO mice [3]; 3 mg/kg daily) was 19705 mg·min/dL and the “Oral Glucose Tolerance Test Mean Blood Glucose” value (DIO mice [3]; 3 mg/kg daily, day 23, 0 min after glucose) was 154.89 mg/dL. The “Oral Glucose Tolerance Test Mean Blood Glucose” value (DIO mice [3]; 3 mg/kg daily, day 23, 30 min after glucose) was 153.11 mg/dL, the “Oral Glucose Tolerance Test Mean Blood Glucose” value (DIO mice [3]; 3 mg/kg daily, day 23, 60 min after glucose) was 183.89 mg/dL and the “Oral Glucose Tolerance Test Mean Blood Glucose” value (DIO mice [3]; 3 mg/kg daily, day 23, 120 min after glucose) was 150.44 mg/dL. For the same compound, the “Oral Glucose Tolerance Test Blood Glucose AUC” value (DIO mice [3]; 10 mg/kg daily) was 19740 mg·min/dL, the “Oral Glucose Tolerance Test Mean Blood Glucose” value (DIO mice [3]; 10 mg/kg daily, day 23, 0 min after glucose) was 141.60 mg/dL and the “Oral Glucose Tolerance Test Mean Blood Glucose” value (DIO mice [3]; 10 mg/kg daily, day 23, 30 min after glucose) was 190.1 mg/dL. The “Oral Glucose Tolerance Test Mean Blood Glucose” value (DIO mice [3]; 10 mg/kg daily, day 23, 60 min after glucose) was 176.2 mg/dL, the “Oral Glucose Tolerance Test Mean Blood Glucose” value (DIO mice [3]; 10 mg/kg daily, day 23, 120 min after glucose) was 132.8 mg/dL and the “Oral Glucose Tolerance Test Blood Glucose AUC” value (DIO mice [3]; 30 mg/kg daily) was 19276.5 mg·min/dL. The “Oral Glucose Tolerance Test Mean Blood Glucose” value (DIO mice [3]; 30 mg/kg daily, day 23, 0 min after glucose) was 125.30 mg/dL, the “Oral Glucose Tolerance Test Mean Blood Glucose” value (DIO mice [3]; 30 mg/kg daily, day 23, 30 min after glucose) was 184.5 mg/dL and the “Oral Glucose Tolerance Test Mean Blood Glucose” value (DIO mice [3]; 30 mg/kg daily, day 23, 60 min after glucose) was 179 mg/dL. The “Oral Glucose Tolerance Test Mean Blood Glucose” value (DIO mice [3]; 30 mg/kg daily, day 23, 120 min after glucose) was 126.9 mg/dL.
